Earlier results on two molecules are cited in patent publication US20090156457A1, “METHODS AND MEANS FOR SCREENING FOR RHOMBOID ACTIVITY” (MEDICAL RESEARCH COUNCIL, priority 2004, published 2009).

The subject of the data set is Rhomboid.

With `Cc1ccc(S(=O)(=O)N[C@@H](Cc2ccccc2)C(=O)CCl)cc1` [TPCK], the Rhomboid activity result is reported as “inhibit Rhomboid activity”.

Consider `O=c1oc(Cl)c(Cl)c2ccccc12` [3,4-DCI], for which the Rhomboid activity result is given as “inhibit Rhomboid activity”.
